# Reference: ChEMBL document CHEMBL3044696, “Synthesis, antimalarial-, and antibacterial activity evaluation of some new 4-aminoquinoline derivatives” (2013)
# What was measured:
# Bacillus subtilis [1] = experiment: Antibacterial activity against Bacillus subtilis ATCC 11774 assessed as growth inhibition at 25 ug/disk after 24 hr by Kirby-Bauer disk diffusion method; format: functional; conditions: ATCC 11774, 24 h, read-out: DIZ
# Plasmodium falciparum [2] = experiment: Antimalarial activity against chloroquine-sensitive Plasmodium falciparum 3D7 infected human RBC assessed as dead ring and trophozoite stage of parasite at 50 ug/mL after 40 hr by Giemsa staining-based light microscopic analysis relative to control; format: functional
# Pseudomonas aeruginosa [3] = experiment: Antibacterial activity against Pseudomonas aeruginosa ATCC 10662 assessed as growth inhibition at 25 ug/disk after 24 hr by Kirby-Bauer disk diffusion method; format: functional; conditions: ATCC 10662, 24 h, read-out: DIZ
# Escherichia coli [4] = experiment: Antibacterial activity against Escherichia coli ATCC 10536 assessed as growth inhibition at 25 ug/disk after 24 hr by Kirby-Bauer disk diffusion method; format: functional; conditions: ATCC 10536, 24 h, read-out: DIZ
# Bacillus subtilis [5] = experiment: Antibacterial activity against Bacillus subtilis ATCC 11774 assessed as growth inhibition at 50 ug/disk after 24 hr by Kirby-Bauer disk diffusion method; format: functional; conditions: ATCC 11774, 24 h, read-out: DIZ
# Staphylococcus aureus [6] = experiment: Antibacterial activity against Staphylococcus aureus ATCC BAA 1026 assessed as growth inhibition at 25 ug/disk after 24 hr by Kirby-Bauer disk diffusion method; format: functional; conditions: ATCC BAA 1026, 24 h, read-out: DIZ
# Staphylococcus aureus [7] = experiment: Antibacterial activity against Staphylococcus aureus ATCC BAA 1026 assessed as growth inhibition at 50 ug/disk after 24 hr by Kirby-Bauer disk diffusion method; format: functional; conditions: ATCC BAA 1026, 24 h, read-out: DIZ
# Klebsiella pneumoniae [8] = experiment: Antibacterial activity against Klebsiella pneumoniae ATCC 33495 assessed as growth inhibition at 25 ug/disk after 24 hr by Kirby-Bauer disk diffusion method; format: functional; conditions: ATCC 33495, 24 h, read-out: DIZ
# Klebsiella pneumoniae [9] = experiment: Antibacterial activity against Klebsiella pneumoniae ATCC 33495 assessed as growth inhibition at 50 ug/disk after 24 hr by Kirby-Bauer disk diffusion method; format: functional; conditions: ATCC 33495, 24 h, read-out: DIZ
# Bacillus cereus [10] = experiment: Antibacterial activity against Bacillus cereus ATCC 10876 assessed as growth inhibition at 25 ug/disk after 24 hr by Kirby-Bauer disk diffusion method; format: functional; conditions: ATCC 10876, 24 h, read-out: DIZ
# Escherichia coli [11] = experiment: Antibacterial activity against Escherichia coli ATCC 10536 assessed as growth inhibition at 50 ug/disk after 24 hr by Kirby-Bauer disk diffusion method; format: functional; conditions: ATCC 10536, 24 h, read-out: DIZ
# Pseudomonas aeruginosa [12] = experiment: Antibacterial activity against Pseudomonas aeruginosa ATCC 10662 assessed as growth inhibition at 50 ug/disk after 24 hr by Kirby-Bauer disk diffusion method; format: functional; conditions: ATCC 10662, 24 h, read-out: DIZ
# Plasmodium falciparum [13] = experiment: Antimalarial activity against chloroquine-sensitive Plasmodium falciparum 3D7 infected human RBC assessed as dead ring and trophozoite stage of parasite at 0.4 ug/mL after 40 hr by Giemsa staining-based light microscopic analysis relative to control
# Staphylococcus aureus [14] = experiment: Antibacterial activity against Staphylococcus aureus ATCC BAA 1026 assessed as growth inhibition at 5 ug/disk after 24 hr by Kirby-Bauer disk diffusion method; format: functional; conditions: ATCC BAA 1026, 24 h, read-out: DIZ
# Pseudomonas aeruginosa [15] = experiment: Antibacterial activity against Pseudomonas aeruginosa ATCC 10662 assessed as growth inhibition at 5 ug/disk after 24 hr by Kirby-Bauer disk diffusion method; format: functional; conditions: ATCC 10662, 24 h, read-out: DIZ
# Bacillus subtilis [16] = experiment: Antibacterial activity against Bacillus subtilis ATCC 11774 assessed as growth inhibition at 5 ug/disk after 24 hr by Kirby-Bauer disk diffusion method; format: functional; conditions: ATCC 11774, 24 h, read-out: DIZ
# Escherichia coli [17] = experiment: Antibacterial activity against Escherichia coli ATCC 10536 assessed as growth inhibition at 5 ug/disk after 24 hr by Kirby-Bauer disk diffusion method; format: functional; conditions: ATCC 10536, 24 h, read-out: DIZ
# Bacillus cereus [18] = experiment: Antibacterial activity against Bacillus cereus ATCC 10876 assessed as growth inhibition at 5 ug/disk after 24 hr by Kirby-Bauer disk diffusion method; format: functional; conditions: ATCC 10876, 24 h, read-out: DIZ
# Klebsiella pneumoniae [19] = experiment: Antibacterial activity against Klebsiella pneumoniae ATCC 33495 assessed as growth inhibition at 5 ug/disk after 24 hr by Kirby-Bauer disk diffusion method; format: functional; conditions: ATCC 33495, 24 h, read-out: DIZ
SMILES,zone of inhibition at 25 µg/disc (Bacillus subtilis [1]) [mm],Activity (Plasmodium falciparum [2]) [%],zone of inhibition at 25 µg/disc (Pseudomonas aeruginosa [3]) [mm],zone of inhibition at 25 µg/disc (Escherichia coli [4]) [mm],zone of inhibition at 50 µg/disc (Bacillus subtilis [5]) [mm],zone of inhibition at 25 µg/disc (Staphylococcus aureus [6]) [mm],zone of inhibition at 50 µg/disc (Staphylococcus aureus [7]) [mm],zone of inhibition at 25 µg/disc (Klebsiella pneumoniae [8]) [mm],zone of inhibition at 50 µg/disc (Klebsiella pneumoniae [9]) [mm],zone of inhibition at 25 µg/disc (Bacillus cereus [10]) [mm],zone of inhibition at 50 µg/disc (Escherichia coli [11]) [mm],zone of inhibition at 50 µg/disc (Pseudomonas aeruginosa [12]) [mm],Activity (Plasmodium falciparum [13]) [%],zone of inhibition at 5 µg/disc (Staphylococcus aureus [14]) [mm],zone of inhibition at 5 µg/disc (Pseudomonas aeruginosa [15]) [mm],zone of inhibition at 5 µg/disc (Bacillus subtilis [16]) [mm],zone of inhibition at 5 µg/disc (Escherichia coli [17]) [mm],zone of inhibition at 5 µg/disc (Bacillus cereus [18]) [mm],zone of inhibition at 5 µg/disc (Klebsiella pneumoniae [19]) [mm]
Cc1ccc(C2SCCC(=O)N2CCCNc2ccnc3cc(Cl)ccc23)s1 (centres undefined),14.2,22,13.9,14.2,23.9,14,23.9,13.9,23.9,13.9,,,,,,,,,
O=C1CCSC(c2ccccc2F)N1CCCNc1ccnc2cc(Cl)ccc12 (centres undefined),18.8,39,14.1,14.3,,14.2,23.9,14.3,,14.3,,,,,,,,,
COc1ccc(C2SCCC(=O)N2CCCNc2ccnc3cc(Cl)ccc23)cc1 (centres undefined),14.2,32,14.3,14.2,23.3,14.1,24.1,14.1,24.2,14.3,24.4,,,,,,,,
O=C1CCSC(c2cccc(O)c2)N1CCCNc1ccnc2cc(Cl)ccc12 (centres undefined),13.8,39.5,13.9,13.9,,14.3,,14,,14.1,24.3,23.9,,,,,,,
O=C1CCSC(c2ccco2)N1CCCNc1ccnc2cc(Cl)ccc12 (centres undefined),14.1,38.5,13.7,14,23.5,14.3,24.2,14.2,24.1,14.2,24.1,,,,,,,,
CCC1SCCC(=O)N1CCCNc1ccnc2cc(Cl)ccc12 (centres undefined),13.1,18.5,13.5,13.7,23.2,12.9,23.1,13.2,23.1,13.5,23.4,23.1,,,,,,,
CN(C)c1ccc(C2SCCC(=O)N2CCCNc2ccnc3cc(Cl)ccc23)cc1 (centres undefined),14.3,25,13.7,14.3,23.7,13.9,23.9,14.1,24.1,14,23.9,,,,,,,,
CCN(CC)CCCC(C)Nc1ccnc2cc(Cl)ccc12 (centres undefined) [CHLOROQUINE],,,,,,,,,,,,,67,,,,,,
CC1COc2c(N3CCN(C)CC3)c(F)cc3c(=O)c(C(=O)O)cn1c23 (centres undefined) [OFLOXACIN],,,,,,,,,,,,,,21.7,20.8,20.7,21.5,20.3,20.3
